Test results from patent US9458176B2, “Tetrahydroimidazo(1,5-D)[1,4]oxazepine derivative” (Eisai R&D Management Co., Ltd., priority 2013, dated 2016).
Marks after values point to notes of the source that are not given here.

What was measured:
[1] = target: human mGluR2 (Homo sapiens (Human), UniProt Q14416); assay: [35S]GTPγS binding assay (Affinity to mGluR2); type: biochemical; conditions: cell membrane fraction of HEK293 cells stably expressing human mGluR2, glutamic acid 10 μM
Procedure, shortened: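 Membranes from HEK293 cells stably co-expressing human mGluR2 and SLC1A3 (1.8–3 μg protein) preincubated with compound 30 min at RT, then stimulated with 10 μM glutamate 15 min; [35S]GTPγS (0.8 kBq) with WGA-SPA beads 1 h, buffer with 3 μM GDP, 100 mM NaCl, 1 mM MgCl2. IC50 from inhibition of glutamate-specific binding.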

[2] = test system: Long-Evans rats; assay: Novel Object Recognition (NOR) test in rats with scopolamine-induced cognitive impairment; type: in vivo, rat; conditions: male Long-Evans rats, scopolamine 0.3 mg/kg i.p.; statistically significant difference in discrimination index vs scopolamine alone group
Description: Six-week old male Long-Evans rats were used for this test. For 2 days before starting the test, the rats were acclimated to experimental operations such as administration and a test device (that is, a black or gray plastic cage with a width of 40 cm, a depth of 30 cm and a height of 45 cm). Each test compound was dissolved in a 0.1 N hydrochloric acid to be orally administered. Thirty minutes after the administration, scopolamine hydrobromide was intraperitoneally administered at a 0.3 mg/kg dose, so as to induce cognitive impairment. After another 30 minutes, each rat was acclimated in the test device for 3 minutes, and thereafter, two blocks in the same shape were put in the test device as acquisition trial, and exploring time for each block was measured for 5 minutes. Two hours after the acquisition trial, the rat was acclimated in the test device for 3 minutes, and thereafter, the same block as those used in the acquisition trial and a new block in a different shape were put in the cage for retention trial. The exploring time for each block was measured for 3 minutes, and a ratio of the exploring time for the newly used block to the sum of the exploring times for the respective blocks was calculated as a discrimination index. The thus obtained discrimination indexes were compared among a group of rats to which a medium alone was administered (medium group), a group of rats to which scopolamine alone was administered (scopolamine alone group) and a group of rats to which both the test compound and scopolamine were administered, so as to evaluate the action of the test compound on the novel object recognition function (cognitive function) of the rats.
Each discrimination index was shown as an average and a standard error. The statistical significance between the medium group and the scopolamine alone group was analyzed by the independent t-test. The statistical significance between the scopolamine alone group and each sample group was analyzed by one-way analysis of variance and then by Dunnett's multiple comparison test. The significance level was set to 5% on both sides. […] The analysis was carried out by using Prism 5 for Windows for Japanese, ver. 5.03.
A minimum effective dose at which a statistically significant difference was found between a group suffering from the cognitive impairment induced by scopolamine and a group treated with each compound is shown in Table 10.

[3] = inhibition of specific [35S]GTPγS binding

Chain of human mGluR2 (Q14416 19-872): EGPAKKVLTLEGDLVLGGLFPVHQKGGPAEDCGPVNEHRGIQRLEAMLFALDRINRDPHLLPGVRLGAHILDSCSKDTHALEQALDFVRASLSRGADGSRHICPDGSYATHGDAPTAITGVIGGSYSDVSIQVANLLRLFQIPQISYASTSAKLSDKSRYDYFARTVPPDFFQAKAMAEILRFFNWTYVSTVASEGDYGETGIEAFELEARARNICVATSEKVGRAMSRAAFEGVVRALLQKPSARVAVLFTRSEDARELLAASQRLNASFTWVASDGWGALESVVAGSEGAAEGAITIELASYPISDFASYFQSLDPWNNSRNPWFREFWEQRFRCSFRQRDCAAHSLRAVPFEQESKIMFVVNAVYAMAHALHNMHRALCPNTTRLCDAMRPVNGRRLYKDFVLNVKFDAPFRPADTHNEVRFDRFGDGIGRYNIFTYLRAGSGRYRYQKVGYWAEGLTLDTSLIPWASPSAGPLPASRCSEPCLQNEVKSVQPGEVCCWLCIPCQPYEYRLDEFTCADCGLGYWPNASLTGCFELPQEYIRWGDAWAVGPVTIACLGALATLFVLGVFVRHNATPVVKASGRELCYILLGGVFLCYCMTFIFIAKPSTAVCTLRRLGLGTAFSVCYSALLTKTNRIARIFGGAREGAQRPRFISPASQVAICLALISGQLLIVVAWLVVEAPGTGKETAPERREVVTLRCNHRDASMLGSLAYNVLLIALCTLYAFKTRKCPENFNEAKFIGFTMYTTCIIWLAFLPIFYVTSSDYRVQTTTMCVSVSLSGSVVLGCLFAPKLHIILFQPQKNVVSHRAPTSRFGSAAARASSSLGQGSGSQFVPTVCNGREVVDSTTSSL

Structure (SMILES) | IC50 [1] [nM] | Minimum effective dose [2] | IC50 [1, 3] [nM]
Cc1cc(-c2nc(-c3ccc(OC(F)F)c(C)c3)n3c2CCO[C@H](C)C3)cc(C)n1 [Example 14, (R)-3-(4-(difluoromethoxy)-3-methylphenyl)-1-(2,6-dimethylpyridin-4-yl)-6-methyl-5,6,8,9-tetrahydroimidazo[1,5-d][1,4]oxazepine] | 5.6 | 1 mg/kg, p.o. | 
Cc1cc(-c2nc(-c3ccc(Cl)c(F)c3)n3c2CCO[C@H](C)C3)cc(CF)n1 [Example 87] | 22 | 3 mg/kg, p.o. | 
COc1cc(-c2nc(-c3cc(C)nc(C)c3)c3n2C[C@@H](C)OCC3)ccc1C(F)(F)F [Example 7, (R)-1-(2,6-dimethylpyridin-4-yl)-3-(3-methoxy-4-(trifluoromethyl)phenyl)-6-methyl-5,6,8,9-tetrahydroimidazo[1,5-d][1,4]oxazepine] | 4.2 | 0.3 mg/kg, p.o. | 
COc1cc(-c2nc(-c3ccnc(C)c3)c3n2C[C@@H](C)OCC3)ccc1OC(F)(F)F [Example 24, (R)-3-(3-methoxy-4-(trifluoromethoxy)phenyl)-6-methyl-1-(2-methylpyridin-4-yl)-5,6,8,9-tetrahydroimidazo[1,5-d][1,4]oxazepine] | 4.8 | 1 mg/kg, p.o. | 
COc1cc(-c2nc(-c3cc(C)nc(C)c3)c3n2C[C@@H](C)OCC3)ccc1Cl [Example 1, (R)-3-(4-chloro-3-methoxyphenyl)-1-(2,6-dimethylpyridin-4-yl)-6-methyl-5,6,8,9-tetrahydroimidazo[1,5-d][1,4]oxazepine] | 10 | 3 mg/kg, p.o. | 
COc1cc(-c2nc(-c3cc(C)nc(C)c3)c3n2CCOCC3)ccc1Cl [Example 44] | 22.3 | 1 mg/kg, p.o. | 
CCOc1ccc(-c2nc(-c3cc(C)nc(C)c3)c3n2C[C@@H](CF)OCC3)cc1Cl [Example 37, (S)-3-(3-chloro-4-ethoxyphenyl)-1-(2,6-dimethylpyridin-4-yl)-6-(fluoromethyl)-5,6,8,9-tetrahydroimidazo[1,5-d][1,4]oxazepine] | 6 |  | 
Cc1cc(-c2nc(-c3ccc(OCCF)c(Cl)c3)n3c2CCO[C@H](C)C3)cc(C)n1 [Example 239] |  |  | 11.9
COc1cc(-c2nc(-c3cc(C)nc(C)c3)c3n2C[C@@H](CF)OCC3)ccc1Cl [Example 11, (S)-3-(4-chloro-3-methoxyphenyl)-1-(2,6-dimethylpyridin-4-yl)-6-fluoromethyl-5,6,8,9-tetrahydroimidazo[1,5-d][1,4]oxazepine] | 11.4 | >1* mg/kg, p.o. | 
Cc1cc(-c2nc(-c3ccc(OC(F)(F)F)cc3)n3c2CCO[C@H](CF)C3)cc(C)n1 [Example 69] | 20.9 |  | 
Cc1cc(-c2nc(-c3ccc(OC(F)(F)F)cc3)n3c2CCO[C@H](C)C3)ccn1 [Example 50] | 14.2 |  | 
Cc1cc(-c2nc(-c3ccc(C)c(OCC4CC4)c3)n3c2CCO[C@H](C)C3)ccn1 [Example 224] |  |  | 50.4
Cc1cc(-c2nc(-c3ccc(OC(F)F)c(C)c3)n3c2CCO[C@H](C)C3)cc(CO)n1 [Example 177] |  |  | 29.4
Cc1cc(-c2nc(-c3ccc(F)c(OCCF)c3)n3c2CCO[C@H](C)C3)cc(C)n1 [Example 5, (R)-1-(2,6-dimethylpyridin-4-yl)-3-(4-fluoro-3-(2-fluoroethoxy)phenyl)-6-methyl-5,6,8,9-tetrahydroimidazo[1,5-d][1,4]oxazepine] | 26.5 |  | 
Cc1cc(-c2nc(-c3ccc(C(F)F)c(Cl)c3)n3c2CCO[C@H](C)C3)cc(C)n1 [Example 146] |  |  | 22.2
Cc1cc(-c2nc(-c3ccc(OC(F)(F)F)c(F)c3)n3c2CCO[C@H](CF)C3)cc(CF)n1 [Example 202] |  |  | 14
Cc1cc(-c2nc(-c3ccc(Cl)c(C(F)F)c3)n3c2CCOCC3)ccn1 [Example 126] | 8.4 |  | 
Cc1cc(-c2nc(-c3ccc(OC(F)F)c(CO)c3)n3c2CCO[C@H](C)C3)cc(C)n1 [Example 235] |  |  | 21.7
COc1cc(-c2nc(-c3cc(C)nc(CO)c3)c3n2C[C@@H](CF)OCC3)ccc1OC(F)F [Example 194] |  |  | 108
COc1cc(-c2nc(-c3cc(C)nc(CF)c3)c3n2C[C@@H](CF)OCC3)ccc1C(F)(F)F [Example 201] |  |  | 2.4
Cc1cc(-c2nc(-c3ccc(Cl)c(C)c3)n3c2CCO[C@H](C)C3)cc(C)n1 [Example 52] | 20.5 |  | 
Cc1cc(-c2nc(-c3ccc(OC(F)(F)F)c(C)c3)n3c2CCO[C@H](C)C3)cc(CF)n1 [Example 204] |  |  | 4
CCOc1cc(-c2nc(-c3ccnc(C)c3)c3n2CCOCC3)ccc1CC [Example 214] |  |  | 21
Cc1cc(-c2nc(-c3ccc(OC(F)(F)F)c(C)c3)n3c2CCO[C@H](C)C3)ccn1 [Example 9, (R)-6-methyl-3-(3-methyl-4-(trifluoromethoxy)phenyl)-1-(2-methylpyridin-4-yl)-5,6,8,9-tetrahydroimidazo[1,5-d][1,4]oxazepine] | 1.9 |  | 
Cc1cc(-c2nc(-c3ccc(C)c(OCC(C)C)c3)n3c2CCO[C@H](C)C3)cc(C)n1 [Example 227] |  |  | 22
Cc1cc(-c2nc(-c3ccc(F)c(OCC4(C)COC4)c3)n3c2CCO[C@H](C)C3)cc(C)n1 [Example 99] | 103 |  | 
Cc1cc(-c2nc(-c3ccc(F)c(OC(F)(F)F)c3)n3c2CCO[C@H](C)C3)cc(C)n1 [Example 157] |  |  | 12.7
